Reference: paper PMC6268061, “Investigation of the Biological Properties of (Hetero)Aromatic Thiosemicarbazones” (Molecules, 2012)
Converted amounts (≈) assume the structure as drawn. “And” between values parts separate entries of the source, which are not always exact repeats. Identical values can stand only once. Like-named read-outs stand apart in the source and are kept apart here.

Experiments:
[1] = Lipophilicity determination using RP-HPLC (capacity factor, log k); type: physicochemical; settings: C18, MeOH 55%/H2O 45%
Description: Reversed phase high performance liquid chromatography (RP-HPLC) methods have become popular and are widely used for lipophilicity measurements. The general procedure is the measurement of the directly accessible retention time under isocratic conditions using varying amounts of methanol as an organic modifier in the mobile phase using RP columns and calculating the logarithm of the capacity factors (log k). Log k is the logarithm of the capacity factors in chromatographic approaches that is related to the partitioning of a compound between a mobile and a (pseudo-)stationary phase. Log k is used as the lipophilicity index converted to log P scale.
A Waters Alliance 2695 XE HPLC separation module and a Waters Photodiode Array Detector 2996 (Waters Corp., Milford, MA, USA) were used. A Symmetry® C18 5 μm, 4.6 × 250 mm, Part No. WAT054275 (Waters Corp.) chromatographic column was used. The HPLC separation process was monitored using Empower™ 2 Chromatography Data Software, Waters 2009 (Waters Corp.). A mixture of MeOH p.a. (55%) and H2O-HPLC-Mili-Q Grade (45%) was used as a mobile phase. The total flow of the column was 0.9 mL/min, injection volume 30 μL, column temperature 30 °C and sample temperature 10 °C. A detection wavelength of 210 nm was chosen. A KI methanolic solution was used for the determination of dead time (tD). Retention times (tR) were measured in minutes. The capacity factors k were calculated using the Empower™ 2 Chromatography Data Software according to the formula k = (tR − tD)/tD, where tR is the retention time of the solute, whereas tD denotes the dead time obtained using an unretained analyte. Log k, calculated from the capacity factor k, is used as the lipophilicity index converted to log P scale.

[2] = tested on: photosynthetic electron transport (PET) in spinach chloroplasts; test: Inhibition of photosynthetic electron transport (PET) in spinach chloroplasts; type: biochemical, Spinacia oleracea L.; settings: DCPIP photoreduction
Description: Chloroplasts were prepared from spinach (Spinacia oleracea L.) according to Masarovicova and Kralova. The inhibition of the photosynthetic electron transport (PET) in spinach chloroplasts was determined spectrophotometrically (Genesys 6, Thermo Fisher Scientific, Waltham, MA, USA) using an artificial electron acceptor 2,6-dichlorophenol-indophenol (DCIPP) according to Kralova et al. and the rate of photosynthetic electron transport was monitored as a photoreduction of DCPIP. The measurements were carried out in a phosphate buffer (0.02 mol/L, pH 7.2) containing sucrose (0.4 mol/L), MgCl2 (0.005 mol/L) and NaCl (0.015 mol/L). The chlorophyll content was 30 mg/L in these experiments and the samples were irradiated (~100 W/m^2 with 10 cm distance) with a halogen lamp (250 W) using a 4 cm water filter to prevent warming of the samples (suspension temperature 22 °C). The compounds studied were dissolved in DMSO due to their limited water solubility. […] The inhibitory efficiency of the compounds studied was expressed by IC50 values, i.e., by the molar concentration of the compounds that caused a 50% decrease in the oxygen evolution rate relative to the untreated control.

[3] = tested on: HCT-116 human colon cancer cells (p53 wild type); test: In vitro antiproliferative activity, MTS assay; type: cell-based; settings: HCT-116, 72 h, read-out: HCT-116 IC50
Description: The antiproliferative activity of all of the compounds was examined against the human colon cancer (HCT-116) cell line using an MTS assay. The HCT-116 p53 wild type cell line was chosen on the basis of our former experience and some results on the activity of quinoline-based thiosemicarbazones that was published recently. Namely, compounds 4a–l have been tested previously for their wide-ranging anticancer activity. The antiproliferative activity of the compounds evaluated was assessed using Doxorubicin as a reference compound. In general, quinoline-based thiosemicarbazones 4 seem to have a much better anticancer activity than halogenophenyl compounds 3. Thus, the quinoline nucleus can be defined as being crucial for antiproliferative activity. A more detailed analysis of the anticancer activity of quinoline-based thiosemicarbazone is available. […] Nevertheless, some more general conclusions can be drawn from the gathered data. […] The free amino group or substitution pattern with small substituents such as methyl or ethyl are favorable for activity. According to our former results the chelating ability of the compounds may be one of the prerequisites of the antiproliferative activity. In this study we have measured the UV-VIS spectra of the compounds in presence of various concentration of Fe^3+ cations to observe its chelating potency (supplementary material). […] However as 4j give also two points at 330 and 385 nm, iron chelating ability should be regarded only as one of the factor influencing the biological activity.
The human colon cancer cell line HCT116 with the wild type p53 gene (p53^+/+) were obtained from Maria Sklodowska-Curie Memorial Cancer Center in Gliwice, Poland. Briefly, the cells were seeded in 96-well plates (3 × 10^3 cells/well) in cellular proliferation assays 24 h before the addition of the chelators. The assay was performed following a 72 h incubation with varying concentrations of the agents. Each compound was tested in triplicate in a single experiment with each experiment being repeated 3 times. After 72 h incubation with the compounds being investigated, 20 µL of MTS solution was added to each well (100 µL) and incubated for 1 h at 37 °C. The optical densities of the samples were analyzed at 490 nm. Results were expressed as a percentage of the control. The inhibitory concentration (IC50) was defined as the compound concentration necessary to reduce the absorbance to 50% of the untreated control.

[4] = tested on: Candida albicans ATCC 44859; test: In vitro antifungal susceptibility, broth microdilution; type: cell-based; settings: read-out: MIC (IC80) CA
Candida tropicalis 156 = test: as above; type: cell-based; settings: read-out: MIC (IC80) CT
Candida krusei ATCC 6258 = test: as above; type: cell-based; settings: Pichia kudriavzevii, read-out: MIC (IC80) CK
Candida glabrata 20/I = test: as above; type: cell-based; settings: Nakaseomyces glabratus, read-out: MIC (IC80) CG
[5] = tested on: Trichosporon beigelii 1188; test: as above; type: cell-based; settings: read-out: MIC (IC80) TB
Description: The broth microdilution test was used for the assessment of the in vitro antifungal activity of the synthesized compounds against Candida albicans ATCC 44859 (CA), Candida tropicalis 156 (CT), Candida krusei ATCC 6258 (CK), Candida glabrata 20/I (CG), Trichosporon beigelii 1188 (TB), Aspergillus fumigatus 231 (AF), Absidia corymbifera 272 (AC), and Trichophyton mentagrophytes 445 (TM). Fluconazole (FLU) was used as the standard since it is a clinically used antimycotic drug. The procedure was performed using a twofold dilution of the compounds in RPMI 1640 (Sevapharma a.s., Prague, Czech Republic) buffered to pH 7.0 with […] of 3-morpholino-propane-1-sulfonic acid (MOPS, Sigma, Prague, Czech Republic). The final concentrations of the compounds ranged from 500 to 0.975 μmol/L. Drug-free controls were included. The determination of minimum inhibitory concentration (MIC) was performed according to the Clinical and Laboratory Standards Institute (CLSI, formerly NCCLS) reference protocol M27-A2 for yeasts (IC80 value) and M38-A for moulds (IC50 value). IC80 and IC50 were defined as an 80% resp. 50% or greater reduction in growth in comparison with the control. The values of MICs were determined after 24 and 48 h of static incubation at 35 °C. The final MICs for T. mentagrophytes, were determined after 72 and 120 h of incubation.

[6] = tested on: Aspergillus fumigatus 231; test: as above; type: cell-based; settings: read-out: MIC (IC50) AF
Absidia corymbifera 272 = test: as above; type: cell-based; settings: read-out: MIC (IC50) AC
[7] = tested on: Trichophyton mentagrophytes 445; test: as above; type: cell-based; settings: read-out: MIC (IC50) TM

CCNC(=S)NN=Cc1ccc2ccccc2n1 [Compound 4c]
log k [1]: 0.6892

S=C(NN=Cc1ccc2ccccc2n1)Nc1ccccc1 [Compound 4d]
log k [1]: 0.7553

CCNC(=S)NN=Cc1ccc2cccc(O)c2n1 [Compound 4g]
log k [1]: 0.6810

CN(C)C(=O)Nc1ccc(Cl)c(Cl)c1 [DCMU, 3-(3,4-dichlorophenyl)-1,1-dimethylurea, reference compound]
IC50 [2]: ~1.9 µM and 1.9 µM

COc1cccc2c1C(=O)c1c(O)c3c(c(O)c1C2=O)C[C@@](O)(C(=O)CO)C[C@@H]3O[C@H]1C[C@H](N)[C@H](O)[C@H](C)O1 [DXR, doxorubicin, reference compound]
IC50 [3]: 10 ± 1.1 µM

OC(Cn1cncn1)(Cn1cncn1)c1ccc(F)cc1F [FLU, Fluconazole, reference compound]
MIC ([4]; ATCC44859, 24 h): 0.06 µM (≈ 0.0184 µg/mL) | MIC ([4]; ATCC44859, 48 h): 0.12 µM (≈ 0.0368 µg/mL) | MIC (Candida tropicalis 156; Candida tropicalis, 156, 24 h): 0.12 µM (≈ 0.0368 µg/mL) | MIC (Candida tropicalis 156; Candida tropicalis, 156, 48 h): > 125 µM | MIC (Candida krusei ATCC 6258; ATCC6258, 24 h): 3.91 µM (≈ 1.2 µg/mL) | MIC (Candida krusei ATCC 6258; ATCC6258, 48 h): 15.6 µM (≈ 4.78 µg/mL) | MIC (Candida glabrata 20/I; 24 h): 0.98 µM (≈ 0.3 µg/mL) | MIC (Candida glabrata 20/I; 48 h): 3.91 µM (≈ 1.2 µg/mL) | MIC ([5]; Trichosporon beigelii, 1188, 24 h): 0.24 µM (≈ 0.0735 µg/mL) | MIC ([5]; Trichosporon beigelii, 1188, 48 h): 0.48 µM (≈ 0.147 µg/mL) | IC50 ([6]; Aspergillus fumigatus, 231, 24 h): > 125 µM | IC50 ([6]; Aspergillus fumigatus, 231, 48 h): > 125 µM | IC50 (Absidia corymbifera 272; Lichtheimia corymbifera, 272, 24 h): > 125 µM | IC50 (Absidia corymbifera 272; Lichtheimia corymbifera, 272, 48 h): > 125 µM | IC50 ([7]; Trichophyton mentagrophytes, 445, 72 h): 1.95 µM | IC50 ([7]; Trichophyton mentagrophytes, 445, 120 h): 3.91 µM
